In brackets after ≈: the same amount, converted by molar mass.
Experiments:
Escherichia coli [1] = test: Inhibition of Escherichia coli MurA assessed as residual enzyme activity at 100 uM using UDP-GlcNAc and PEP as substrate incubated for 15 mins by Malachite green method
Escherichia coli [2] = test: Antibacterial activity against Escherichia coli ATCC 25922 incubated for 18 to 24 hrs by broth microdilution method; type: functional
Staphylococcus aureus [3] = test: Antibacterial activity against Staphylococcus aureus ATCC 29213 incubated for 18 to 24 hrs by broth microdilution method; type: functional
[4] = Inhibition of Escherichia coli MurA using UDP-GlcNAc and PEP as substrate incubated for 15 mins by Malachite green method
Staphylococcus aureus [5] = test: Antibacterial activity against Staphylococcus aureus; type: functional
Escherichia coli [6] = test: Antibacterial activity against Escherichia coli; type: functional
[7] = Inhibition of Escherichia coli MurA

SMILES	Activity (Escherichia coli [1])	MIC (Escherichia coli [2])	MIC (Staphylococcus aureus [3])	IC50 [4]	MIC (Staphylococcus aureus [5])	MIC (Escherichia coli [6])	IC50 [7]
O=c1c2ccccc2nc(-c2ccco2)n1Cc1ccccc1	100%	> 128 µg/mL	> 128 µg/mL	–	–	–	–
O=c1[nH]c(-c2cccc(OCc3ccccc3)c2)nc2ccccc12	–	> 128 µg/mL	> 128 µg/mL	23 µM	–	–	–
Cn1cc[n+](C(Cn2cnc3ccc(Cl)cc3c2=O)c2cc3cc(Br)ccc3o2)c1.[Cl-] (configuration not stated)	–	–	–	–	16 µg/mL	128 µg/mL	–
O=c1[nH]c(/C=C/c2ccccc2)nc2ccccc12	–	> 128 µg/mL	> 128 µg/mL	51 µM	–	–	–
O=c1[nH]c(-c2cccc(OCc3ccc(C(F)(F)F)cc3)c2)nc2ccccc12	88%	> 128 µg/mL	> 128 µg/mL	–	–	–	–
O=c1[nH]c(-c2c[nH]cn2)nc2ccccc12	88%	> 128 µg/mL	> 128 µg/mL	–	–	–	–
COc1ccc(-c2nc(O)c3ccccc3n2)cc1	71%	> 128 µg/mL	> 128 µg/mL	–	–	–	–
O=c1[nH]c(-c2ccc(O)cc2)nc2ccccc12	91%	> 128 µg/mL	> 128 µg/mL	–	–	–	–
O=c1[nH]c(-c2ccc(Cl)cc2)nc2ccccc12	72%	> 128 µg/mL	> 128 µg/mL	–	–	–	–
O=c1[nH]c(-c2ccc(O)cc2)nc2ccsc12	80%	> 128 µg/mL	> 128 µg/mL	–	–	–	–
COc1ccc2occ(-c3nc4ccccc4c(=O)[nH]3)c(=O)c2c1	100%	> 128 µg/mL	> 128 µg/mL	–	–	–	–
O=c1[nH]c(-c2ccc(OCc3ccccc3)cc2)nc2ccccc12	–	> 128 µg/mL	> 128 µg/mL	36 µM	–	–	–
O=c1[nH]c(-c2ccc3ccccc3n2)nc2ccccc12	100%	> 128 µg/mL	> 128 µg/mL	–	–	–	–
O=c1[nH]c(-c2ccc(F)c(F)c2)nc2ccccc12	67%	> 128 µg/mL	> 128 µg/mL	–	–	–	–
O=c1[nH]c(-c2ccc(-c3cc[nH]n3)o2)nc2ccccc12	100%	> 128 µg/mL	> 128 µg/mL	–	–	–	–
Oc1nc(-c2ccncc2)nc2ccccc12	82%	> 128 µg/mL	> 128 µg/mL	–	–	–	–
Oc1nc(-c2cccs2)nc2ccccc12	83%	> 128 µg/mL	> 128 µg/mL	–	–	–	–
Cn1c(-c2ccco2)nc2ccccc2c1=O	–	> 128 µg/mL	> 128 µg/mL	72 µM	–	–	–
O=c1[nH]c(-c2ccc(Cn3cncn3)nc2)nc2ccccc12	80%	> 128 µg/mL	> 128 µg/mL	–	–	–	–
COC(=O)c1ccc(COc2cccc(-c3nc4ccccc4c(=O)[nH]3)c2)cc1	–	> 128 µg/mL	> 128 µg/mL	21 µM	–	–	–
Cc1ccc(COc2ccc(-c3nc4ccccc4c(=O)[nH]3)cc2)cc1	97%	> 128 µg/mL	> 128 µg/mL	–	–	–	–
N#Cc1ccc(-c2nc3ccccc3c(=O)[nH]2)cc1	54%	> 128 µg/mL	> 128 µg/mL	–	–	–	–

SMILES	Activity (Escherichia coli [1])	MIC (Escherichia coli [2])	MIC (Staphylococcus aureus [3])	IC50 [4]	MIC (Staphylococcus aureus [5])	MIC (Escherichia coli [6])	IC50 [7]
O=c1[nH]c(-c2ccc(-c3ccccc3)s2)nc2ccsc12	–	> 128 µg/mL	≥ 128 µg/mL	22 to 30 µM	–	–	–
CCCCCCCOc1ccc(-c2nc3ccccc3c(=O)[nH]2)cc1	–	> 128 µg/mL	> 128 µg/mL	84 µM	–	–	–
O=c1[nH]c(-c2ccc(OCc3cccc(Cl)c3)cc2)nc2ccccc12	95%	> 128 µg/mL	> 128 µg/mL	–	–	–	–
COC(=O)c1ccc(COc2ccc(-c3nc4ccccc4c(=O)[nH]3)cc2)cc1	100%	> 128 µg/mL	> 128 µg/mL	–	–	–	–
Oc1nc(-c2ccc(F)cc2)nc2ccccc12	89%	> 128 µg/mL	> 128 µg/mL	–	–	–	–
O=Cc1ccc(-c2nc3ccccc3c(=O)[nH]2)cc1	58%	> 128 µg/mL	> 128 µg/mL	–	–	–	–
COC(=O)Cn1c(-c2ccco2)nc2ccccc2c1=O	66%	> 128 µg/mL	> 128 µg/mL	–	–	–	–
COC(=O)c1cccc(COc2ccc(-c3nc4ccccc4c(=O)[nH]3)cc2)c1	100%	> 128 µg/mL	> 128 µg/mL	–	–	–	–
O=c1c2ccccc2nc(-c2ccco2)n1CCO	91%	> 128 µg/mL	> 128 µg/mL	–	–	–	–
O=c1[nH]c(-c2ccc(-c3ccccc3)cc2)nc2ccccc12	–	> 128 µg/mL	> 128 µg/mL	21 µM	–	–	–
O=c1[nH]c(-c2cccc(Br)c2)nc2ccccc12	65%	> 128 µg/mL	> 128 µg/mL	–	–	–	–
O=c1[nH]c(-c2ccc(OCc3ccccc3)cc2)nc2ccsc12	–	≥ 128 µg/mL	≥ 128 µg/mL	22 to 30 µM	–	–	–
O=c1[nH]c(-c2ccc3cccc(O)c3n2)nc2ccccc12	84%	> 128 µg/mL	> 128 µg/mL	–	–	–	–
O=c1[nH]c(-c2ccc([N+](=O)[O-])cc2)nc2ccccc12	99%	> 128 µg/mL	> 128 µg/mL	–	–	–	–
O=c1[nH]c(-c2cccc(OCc3ccc(F)cc3)c2)nc2ccccc12	–	> 128 µg/mL	> 128 µg/mL	19 µM	–	–	–
O=C(O)c1ccc(-c2nc3ccccc3c(=O)[nH]2)cc1	86%	> 128 µg/mL	> 128 µg/mL	–	–	–	–
CN(C)c1ccc(-c2nc(O)c3ccccc3n2)cc1	97%	> 128 µg/mL	> 128 µg/mL	–	–	–	–
CC(C)n1c(-c2ccco2)nc2ccccc2c1=O	93%	> 128 µg/mL	32 µg/mL (≈ 126 µM)	–	–	–	–
O=c1[nH]c(-c2ccco2)nc2ccccc12	–	> 128 µg/mL	> 128 µg/mL	101 µM	–	–	–
N#Cc1cccc(-c2nc3ccccc3c(=O)[nH]2)c1	62%	> 128 µg/mL	> 128 µg/mL	–	–	–	–
O=c1[nH]c(-c2cccc(OCc3ccc(Cl)cc3)c2)nc2ccccc12	–	> 128 µg/mL	> 128 µg/mL	8 µM	–	–	–
O=c1[nH]c(-c2ccc([N+](=O)[O-])o2)nc2ccccc12	–	1 µg/mL (≈ 3.89 µM)	8 µg/mL (≈ 31.1 µM)	47 µM	–	–	–

SMILES	Activity (Escherichia coli [1])	MIC (Escherichia coli [2])	MIC (Staphylococcus aureus [3])	IC50 [4]	MIC (Staphylococcus aureus [5])	MIC (Escherichia coli [6])	IC50 [7]
O=c1[nH]c(-c2cccc(O)c2)nc2ccccc12	80%	> 128 µg/mL	> 128 µg/mL	–	–	–	–
O=c1[nH]c(-c2ccc(CO)o2)nc2ccccc12	99%	> 128 µg/mL	> 128 µg/mL	–	–	–	–
O=c1[nH]c(-c2cccc(Cl)c2)nc2ccccc12	68%	> 128 µg/mL	> 128 µg/mL	–	–	–	–
O=c1[nH]c(-c2cccc(Br)n2)nc2ccccc12	91%	> 128 µg/mL	> 128 µg/mL	–	–	–	–
O=c1[nH]c(-c2cccc(OCc3cccc(Cl)c3)c2)nc2ccccc12	98%	> 128 µg/mL	> 128 µg/mL	–	–	–	–
O=c1[nH]c(-c2cn3ccsc3n2)nc2ccccc12	82%	> 128 µg/mL	128 µg/mL (≈ 477 µM)	–	–	–	–
O=C(O)c1ccc(COc2ccc(-c3nc4ccccc4c(=O)[nH]3)cc2)cc1	92%	> 128 µg/mL	> 128 µg/mL	–	–	–	–
Cc1ccc(-c2nc3ccccc3c(=O)[nH]2)o1	–	> 128 µg/mL	> 128 µg/mL	81 µM	–	–	–
O=C(O)c1cccc(COc2ccc(-c3nc4ccccc4c(=O)[nH]3)cc2)c1	85%	> 128 µg/mL	> 128 µg/mL	–	–	–	–
O=c1[nH]c(-c2ccco2)nc2ccsc12	–	> 128 µg/mL	> 128 µg/mL	94 µM	–	–	–
O=c1[nH]c(-c2cc(F)cc3c2OCOC3)nc2ccccc12	99%	> 128 µg/mL	> 128 µg/mL	–	–	–	–
O=c1[nH]c(-c2ccc(-c3ccncc3)cc2)nc2ccccc12	100%	> 128 µg/mL	> 128 µg/mL	–	–	–	–
O=c1[nH]c(-c2ccc(N3CCOCC3)nc2)nc2ccccc12	64%	> 128 µg/mL	> 128 µg/mL	–	–	–	–
O=c1[nH]c(-c2ccc(-c3ccccc3)s2)nc2ccccc12	–	> 128 µg/mL	> 128 µg/mL	17 µM	–	–	–
O=C(O)c1ccc(COc2cccc(-c3nc4ccccc4c(=O)[nH]3)c2)cc1	85%	> 128 µg/mL	> 128 µg/mL	–	–	–	–
O=C(O)Cn1c(-c2ccoc2)nc2ccccc2c1=O	74%	> 128 µg/mL	> 128 µg/mL	–	–	–	–
O=c1[nH]c(-c2ccc(Br)o2)nc2ccccc12	–	> 128 µg/mL	> 128 µg/mL	56 µM	–	–	–
C[C@@H]1O[C@@H]1P(=O)(O)O [FOSFOMYCIN]	–	–	–	–	16 µg/mL (≈ 116 µM)	16 µg/mL (≈ 116 µM)	8.8 µM
O=c1[nH]c(-c2ccnc(N3CCOCC3)c2)nc2ccccc12	70%	> 128 µg/mL	> 128 µg/mL	–	–	–	–
CC(C)n1c(-c2ccc([N+](=O)[O-])o2)nc2ccccc2c1=O	–	2 µg/mL (≈ 6.68 µM)	8 µg/mL (≈ 26.7 µM)	87 µM	–	–	–
O=c1[nH]c(-c2ccc3c(c2)OCO3)nc2ccccc12	83%	> 128 µg/mL	> 128 µg/mL	–	–	–	–
O=c1[nH]c(-c2ccoc2)nc2ccccc12	91%	> 128 µg/mL	> 128 µg/mL	–	–	–	–

From ChEMBL document CHEMBL4033728, “Synthesis and structure-activity relationship study of novel quinazolinone-based inhibitors of MurA” (Bioorg Med Chem Lett, 2017)
